Experimental data published in the NIST ThermoML archive (doi:10.1016/j.tca.2015.01.012).

Conditions: 101.33 kPa, Crystal; for molar entropy: Small (less than 1 g) adiabatic calorimetry; for mass density: X-ray diffraction

O=C(O)c1cccnc1 [3-carboxylpyridine]
Conditions	mass density [kg/m3]	molar entropy [J/K/mol]
1 K	–	0.0005
2 K	–	0.004
3 K	–	0.0136
4 K	–	0.0323
5 K	–	0.063
6 K	–	0.1089
7 K	–	0.1788
8 K	–	0.2634
9 K	–	0.3747
10 K	–	0.5086
15 K	–	1.592
20 K	–	3.297
25 K	–	5.543
30 K	–	8.212
35 K	–	11.2
40 K	–	14.39
45 K	–	17.7
50 K	–	21.08
60 K	–	27.91
70 K	–	34.69
80 K	–	41.32
90 K	–	47.75
100 K	–	53.98
110 K	–	60.02
120 K	–	65.91
130 K	–	71.64
140 K	–	77.24
150 K	1481	82.72
160 K	–	88.1
170 K	–	93.38
175 K	1477	–
180 K	–	98.6
190 K	–	103.7
200 K	1471	108.9
210 K	–	113.9
220 K	–	119
225 K	1465	–
230 K	–	124
240 K	–	129
250 K	1460	134.1
260 K	–	139.1
270 K	–	144.2
273.15 K	–	145.7
275 K	1454	–
280 K	–	149.2
290 K	–	154.3
298.15 K	–	158.4
300 K	1444	159.3
310 K	–	164.4
320 K	–	169.5
325 K	1436	–
330 K	–	174.6
340 K	–	179.7
346 K	–	182.8
350 K	1430	–
375 K	1422	–
400 K	1413	–
425 K	1406	–
